From patent US20230390214A1, “ADHESIVE PATCH” (TOYO INK SC HOLDINGS CO., LTD., priority 2020, published 2023)

Assay: Solubility of the drug in levulinic acid at 35° C. (visual observation)
Type: physicochemical
Details: in 1 mL of levulinic acid at a liquid temperature of 35° C.
Method: The adhesive layer includes a drug. A drug that can be dissolved in levulinic acid is preferable. For example, it is preferable that 0.1 g or more of the drug can be dissolved in 1 mL of levulinic acid at a liquid temperature of 35° C.
Specifically, the solubility of the drug is determined as follows. One mL of levulinic acid is put into a test tube and kept at 35° C. to obtain liquid levulinic acid. To the liquid levulinic acid, 0.1 g of the drug is added to obtain a mixed liquid. While keeping the mixed liquid at 35° C., the mixed liquid in the test tube is vibrated for 10 minutes using an ultrasonic cleaner (e.g., a glasses cleaner). After removing the test tube from the ultrasonic cleaner and leaving it in an environment of 35° C. for 4 hours, the mixed liquid in the test tube is visually observed to check for the presence of residues or precipitates of the drug. In a case where no drug residues or precipitates are observed in the mixed liquid, it is determined that 0.1 g or more of the drug can be dissolved in 1 mL of levulinic acid at a liquid temperature of 35° C. Furthermore, in a case where drug residues or precipitates are observed in the mixed liquid, it is determined that 0.1 g or more of the drug cannot be dissolved in 1 mL of levulinic acid at a liquid temperature of 35° C.
For `CCN1CCN(c2cc(-c3ccc(F)cc3)c3c(n2)CCCCCC3)CC1` [blonanserin], the “Amount of drug that can be dissolved in 1 mL of levulinic acid” value (“Amount of drug that can be dissolved” below) was ≥ 0.1 g.
For `N=C(N)NC(=O)Cc1c(Cl)cccc1Cl` [guanfacine], the “Amount of drug that can be dissolved” value was ≥ 0.1 g.
For `CCCN(CCc1cccs1)[C@H]1CCc2c(O)cccc2C1` [rotigotine], the “Amount of drug that can be dissolved” value was ≥ 0.1 g.
